Test results published in patent US7001983B1, “Antipathogenic synthetic peptides and compositions comprising them” (priority 1997, dated 2006).
Values after ≈ are worked out from the molar mass of the structure shown. Square brackets hold non-standard residues; d marks the D form. Peptide text beside a SMILES is read from it.

Tests used:
[1] = tested on: Pseudomonas aeruginosa ATCC 27853; conditions: 100% inhibition of growth after 18–20 h
Procedure: (viii) Antibacterial activity of the peptides.
Antibacterial activity of the mixtures was determined as described in Experimental procedures, section (xii).

[2] = Membrane permeation, diffusion potential assay; conditions: dissipation of diffusion potential
Procedure: (xi) Membrane permeation induced by the peptides. Membrane permeation was assessed utilizing the diffusion potential assay (Loew et al., 1983; Sims et al., 1974) as previously described (Shai et al., 1991). In a typical experiment, in a glass tube, 4 μl of a liposomes suspension (final phospholipids concentration of 33 μM), in a K^+ containing buffer (50 mM K2SO4, 25 mM HEPES-SO4^−2, pH 6.8), was diluted in 1 ml of an isotonic K^+ free buffer (50 mM Na2SO4, 25 mM HEPES-SO4^−2, pH 6.8), and the fluorescent, potential-sensitive dye diS-C2-5 was then added. Valinomycin (1 μl of 10^−7 M) was added to the suspension in order to slowly create a negative diffusion potential inside the vesicles, which led to a quenching of the dye's fluorescence. Once the fluorescence had stabilized, which took 3–10 minutes, peptides were added. The subsequent dissipation of the diffusion potential, as reflected by an increase in fluorescence, was monitored on a Perkin Elmer LS-50B spectrofluorometer, with the excitation set at 620 nm, the emission at 670 nm, and the gain adjusted to 100%. The percentage of fluorescence recovery, Ft, was defined as: Ft=(It−I0/If−I0)×100 where I0=the initial fluorescence, If=the total fluorescence observed before the addition of valinomycin, and It=the fluorescence observed after adding the peptide at time t.
2.5.1 Membrane permeability induced by the peptides. […]

[3] = CD spectroscopy, α-helix content; assay type: physicochemical; conditions: CD in 40% TFE
Procedure: (vii) CD Spectroscopy. The CD spectra of the peptides were measured with a Jasco J-500A spectropolarimeter after calibrating the instrument with (+)-10-camphorsulfonic acid. The spectra were scanned at 23° C. in a capped, quartz optical cell with a 0.5 mm path length. Spectra were obtained at wavelengths of 250 to 190 nm. Eight scans were taken for each peptide at a scan rate of 20 nm/min. […] Fractional helicities (Greenfield and Fasman, 1969; Wu et al., 1981) were calculated as follows: [formula] where [θ]222 is the experimentally-observed mean residue ellipticity at 222 nm, and the values for [θ]^0222 and [θ]^100222, which correspond to 0% and 100% helix content at 222 nm, are estimated to be 2000 and 32000 deg·cm^2/dmole,
1.2 Determination of the secondary structure of the peptides. The secondary structures of the peptides 1, 8, 12, 14, were evaluated from their CD spectra in 40% TFE, a solvent that strongly promotes an α-helical structure, as described in Experimental Procedures, section (vii), and in PBS (35 mM phosphate buffer/0.15 M NaCl, pH 7.0).

[4] = phosphatidylglycerol/phosphatidylcholine; Beschiaschvili and Seelig, 1990; cited from earlier work
[5] = tested on: Micrococcus Iuteus ATCC 9341; experiment: Antibacterial activity (MIC), growth inhibition in LB medium; assay type: cell-based, Micrococcus luteus; conditions: 100% inhibition of growth after 18–20 h
Procedure: (viii) Antibacterial activity of the peptides. The antibacterial activity of the diastereomers was examined in sterile 96-well plates (Nunc F96 microtiter plates) in a final volume of 100 μL as follows: Aliquots (50 μl) of a suspension containing bacteria at a concentration of 10^6 Colony-Forming Units (CFU)/ml LB (Lauria broth) medium were added to 50 μL of water or 66% pooled normal human serum in PBS, containing the peptide in 2-fold serial dilutions. Growth inhibition was determined by measuring the absorbance at 492 nm with a Microplate autoreader E1309 (Bio-tek Instruments), following incubation for 18–20 h at 37° C. […] The bacteria used were: Escherichia coli D21, Pseudomonas aeruginosa ATCC 27853, Acinetobacter calcoaceticus Ac11, Salmonella typhimurium LT2, Bacillus megaterium Bm11, Micrococcus Iuteus ATCC 9341, Bacillus subtilis ATCC 6051.

[6] = tested on: Acinetobacter calcoaceticus Ac11; assay type: cell-based; conditions: 100% inhibition of growth after 18–20 h
[7] = tested on: human red blood cells (hRBC); experiment: Hemolysis of human red blood cells; assay type: cell-based
In short: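 Washed fresh erythrocytes at 5% v/v final in PBS pH 7.3 exposed to peptide 30 min at 37° C with agitation. Hemoglobin release read as supernatant absorbance at 540 nm after centrifugation, scaled between PBS (0%) and 1% Triton (100%).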

[8] = tested on: Bacillus megaterium Bm11; assay type: cell-based; conditions: 100% inhibition of growth after 18–20 h
[9] = tested on: Cryptococcus neoformans (IP960-67); experiment: Antifungal activity (MIC); assay type: cell-based; conditions: 100% inhibition of growth after 48 h at 30° C.
Procedure: (§1) The antifungal activity of the pardaxin-derived peptides 1 and 16 (see Example 1 above) was examined in sterile 96-well plates (Nunc F96 microtiter plates) in a final volume of 100 μL as follows: Fifty microliters of a suspension containing fungi at concentration of 1×10^6 Colony-Forming Units (CFU)/ml in culture medium (Sabouraud's glucose broth medium) was added to 50 μL of water containing the peptide in serial 2-fold dilutions in water. Inhibition of growth was determined by measuring the absorbance at 492 nm with a Microplate autoreader E1309 (Bio-tek Instruments), after an incubation time of 48 h at 30° C. […] The fungi used were: Candida albicans (IP886-65) and Cryptococcus neoformans (IP960-67).

[10] = tested on: Candida albicans (IP886-65); experiment: Antifungal activity (MIC); assay type: cell-based; conditions: 100% inhibition of growth after 48 h at 30° C.
Procedure: as §1

[11] = tested on: Bacillus subtilis ATCC 6051; assay type: cell-based; conditions: 100% inhibition of growth after 18–20 h
[12] = tested on: Escherichia coli D21; assay type: cell-based; conditions: 100% inhibition of growth after 18–20 h
[13] = tested on: Sendai virus (Z strain); conditions: no release of hemoglobin after incubation 37° C. 60 min
Procedure: Sendai virus (Z strain) was grown in the allantoic sac of 10–11 day old embryonated chicken eggs, harvested 48 h after injection and purified. The virus was resuspended in buffer composed of 160 mM NaCl, 20 mM tricine, pH 7.4, and stored at −70° C. Virus haemagglutinating activity was measured in haemagglutinating units (HAU). One microliter contained ˜60000 HAU. Fresh human blood was obtained from a blood bank and stored for up to 1 month at 4° C. Prior to use, erythrocytes were washed twice with PBS pH 7.2, and diluted to the desired concentration (% v/v) with the same buffer. Virions, erythrocytes and peptides were mixed in different orders of addition and various amounts. The final incubation was always at 37° C. for 60 min. followed by centrifugation at 5700 g for 10 min to remove intact cells. In all cases duplicate samples were used and two aliquots were taken from the supernatant of each sample to two wells of a 96-well plate. The amount of hemoglobin release was monitored by measuring the absorbance of the wells with the ELISA, plate reader at 540 nm. Antiviral activity was expressed as the minimal inhibitory concentration (MIC), the concentration at which no release of hemoglobin was observed after incubation.

[14] = tested on: Leishmania mexicana NR strain promastigotes; experiment: Anti-Leishmania activity, counting living promastigotes; assay type: cell-based; conditions: 100% death after 24 h of incubation
Procedure: The melittin-derived diastereomer peptide 20 (see Example 2 above) and the Leu/Lys diastereomer peptide 23 (see Example 3 above) were tested against Leishmania. Promastigotes of the Leishmania mexicana NR strain to be assayed were cultured at 27° C. in RPMI 1640 medium supplemented with 10% fetal bovine serum. Parasite were harvested by centrifugation at 1200×g for 10 min at 4° C. and washed twice with PBS (50 mM sodium phosphate, 150 mM NaCl, pH 7). The washed promastigotes were counted in a hemocytometer and adjusted to 1×10^6 parasites/ml. Aliquotes of this suspension were assayed in a final volume of 100 μl by counting living (motile) cells after 24 h of incubation at 26° C. in the absence or presence of various concentrations of the diastereomers.

[15] = tested on: human red blood cells (hRBC); conditions: Oren and Shai, 1996; cited from earlier work

CC[C@H](C)[C@H](NC(=O)CN)C(=O)NCC(=O)N[C@@H](C)C(=O)N[C@H](C(=O)N[C@@H](CC(C)C)C(=O)N[C@@H](CCCCN)C(=O)N[C@H](C(=O)N[C@@H](CC(C)C)C(=O)N[C@H](C(=O)N[C@H](C(=O)NCC(=O)N[C@@H](CC(C)C)C(=O)N1CCC[C@H]1C(=O)N[C@@H](C)C(=O)N[C@@H](CC(C)C)C(=O)N[C@H](C(=O)N[C@@H](CO)C(=O)N[C@@H](Cc1c[nH]c2ccccc12)C(=O)N[C@H](C(=O)N[C@@H](CCCCN)C(=O)N[C@@H](CCCNC(=N)N)C(=O)N[C@@H](CCCCN)C(=O)N[C@@H](CCCNC(=N)N)C(=O)N[C@@H](CCC(N)=O)C(=O)N[C@@H](CCC(N)=O)C(N)=O)[C@@H](C)CC)[C@@H](C)CC)[C@@H](C)O)[C@@H](C)O)C(C)C)C(C)C [Melittin]
Minimal Inhibitory Concentration P. aeruginosa (ATCC 27853) [1]: 25 µM
membrane permeating activity with PC (zwitterionic) vesicles [2]: highly active
α-helix content [3]: 73%
partition coefficient reported for melittin binding [4]: 4.5±0.6×10^4 M^−1
Minimal Inhibitory Concentration M. luteus (ATCC 9341) [5]: 0.4 µM

CC[C@H](C)[C@H](NC(=O)[C@H](CCCCN)NC(=O)[C@H]1CCCN1C(=O)[C@@H](NC(=O)[C@H](CC(C)C)NC(=O)[C@H](C)NC(=O)[C@H](Cc1ccccc1)NC(=O)[C@H](Cc1ccccc1)NC(=O)CN)[C@@H](C)CC)C(=O)N[C@H](C(=O)N[C@@H](CO)C(=O)N[C@@H](CO)C(=O)N1CCC[C@H]1C(=O)N[C@@H](CC(C)C)C(=O)N[C@@H](Cc1ccccc1)C(=O)N[C@@H](CCCCN)C(=O)N[C@H](C(=O)N[C@H](CC(C)C)C(=O)N[C@H](CC(C)C)C(=O)N[C@@H](CO)C(=O)N[C@@H](C)C(=O)N[C@H](C(=O)NCC(=O)N[C@@H](CO)C(=O)N[C@@H](C)C(=O)N[C@@H](CC(C)C)C(=O)N[C@@H](CO)C(=O)N[C@@H](CO)C(=O)N[C@@H](CO)C(=O)NCC(=O)NCC(=O)N[C@@H](CCC(N)=O)C(=O)N[C@@H](CCC(=O)NCCN)C(=O)NCCN)C(C)C)[C@@H](C)O)[C@@H](C)CC [Peptide 1, [D]P^7L^18L^19-TApar]
Minimal Inhibitory Concentration A. calcoaceticus (Ac11) [6]: 6 µM
% hemolysis at 50 μM peptide ([7]; hRBC, 50 μM peptide, 30 min at 37° C.): 5%
hemolytic activity up to the maximum concentration tested ([7]; hRBC, up to 50 μM): practically devoid of hemolytic activity
Minimal Inhibitory Concentration B. megaterium (Bm11) [8]: 0.9 µM
Minimal Inhibitory Concentration Cryptococcus neoformans (IP960-67) [9]: 50 µM
Minimal Inhibitory Concentration Candida albicans (IP886-65) [10]: 35 µM
Minimal Inhibitory Concentration B. subtilis (ATCC 6051) [11]: 3 µM
Minimal Inhibitory Concentration E. coli (D21) [12]: 6 µM
Minimal Inhibitory Concentration M. luteus (ATCC 9341) [5]: 12.5 µM

CC(C)C[C@H](NC(=O)[C@H](CCCCN)NC(=O)[C@@H](CC(C)C)NC(=O)[C@@H](CC(C)C)NC(=O)[C@H](CC(C)C)NC(=O)[C@@H](N)CCCCN)C(=O)N[C@@H](CC(C)C)C(=O)N[C@H](CC(C)C)C(=O)N[C@@H](CCCCN)C(=O)N[C@H](CC(C)C)C(=O)N[C@@H](CC(C)C)C(=O)N[C@@H](CCCCN)C(N)=O [Peptide 23, [D]-L^3,4,8,10-K4L8] (H-KL[dL][dL]KLL[dL]K[dL]LK-NH2)
hemolytic activity in comparison to melittin (fold less) [7]: > 100 fold
% hemolysis at 100 μM ([7]; red cells of human, 100): 0%
MIC Sendai virus [13]: 80 µM (≈ 115 µg/mL)
MIC Leishmania mexicana [14]: 17 µM (≈ 24.4 µg/mL)

Pardaxin
hemolytic activity towards human erythrocytes relative to melittin (fold less) [15]: 40–100 fold
